Key:
[1] = target: T1, [U-15N]-survivin (Homo sapiens, UniProt O15392); assay: NMR titration of [U-15N]-survivin with PRC2-derived peptides; format: binding
T1 construct: transferred to the survivin1-142 construct used in the present study; His8 tag (pHIS8 vector, thrombin-cleavable); made in house; host or cells: E. coli BL21(DE3) star, M9 medium with 15NH4Cl
Protocol: Uniformly [U] labeled [U-^15N] survivin was produced in H2O-based M9 medium[69] containing ^15NH4Cl as the sole nitrogen and in case of or [U-^15N,^13C] survivin D-(^13C)-glucose was additionally added as the sole carbon source, respectively (Sigma-Aldrich). Expression was induced with 0.5 mM IPTG and continued for 20–22 h at 15°C. Cell harvesting and subsequent purification followed the same protocol as for unlabeled survivin.
NMR measurements were performed on Bruker (Fällanden, Switzerland) AvanceIII 800 MHz spectrometers running Topspin 3.5 or 3.6, respectively, equipped with cryogenically cooled triple resonance probes. All NMR experiments were performed in NMR buffer (50 mM Tris, 150 mM NaCl, 1 mM DTT, pH 7.5) and at 298 K. The sequence-specific backbone assignment of survivin1-117 was taken from previously published assignment,[50] and transferred to the survivin1-142 construct used in the present study. Existing resonance assignments were confirmed, and additional resonances were assigned in a sequence-specific manner by the following experiments: [^1H,^15N]-TROSY HSQC,[70] BEST-TROSY-type HNCA and HNCO experiments.[71]
The peptides were synthetized and purified to 95% by Biomatik. The peptides were titrated into ^15N labelled survivin (0.3 mM). Standard 2D [^15N,^1H]-SOFAST-HMQC[72] experiments were recorded with inter-scan delays of 200 ms and 1025 x 256 complex points for the ^1H and ^15N dimensions, respectively, for the titrations of the different peptides with [U-^15N] survivin.
For the global analysis, the NMR signal strength was quantified by summing the 200 highest values in each 2D NMR spectrum to ensure that all peaks corresponding to the different amino acid residues in survivin are potentially covered. The titration curve was modelled using a Bayesian machine learning approach using the python library pymc3.[66] The logistic function was chosen due to computational convenience. The most important parameter of this function was coined “critical peptide concentration (cpc)” and its logarithm was modelled using a uniform a priori distribution between −10 and 1. p(log10cpc|lower=−10,upper=1)=1/upper−lower
The modelling errors related to the choice of function affect the analysis of different peptides similarly. Therefore, the relative magnitude of cpc in comparison is more reliable than the absolute magnitude of cpc itself. The concentration values were converted to dimensionless quantities by dividing with 1 mM and the NMR signal intensity was normalized for the concentration range studied.
A deterministic sigmoid (logistic) function was used to model signal decay as a function of peptide concentration. Additional a priori assumptions of the function parameters were the following: p(k|lower=−10,upper=10)=1/upper−lower p(L|lower=−3,upper=3)=1/upper−lower p(b|lower=−10,upper=10)=1/upper−lower
1000 posterior samples were collected in four parallel chains using the No-U-Turn sampling algorithm (NUTS) after 2000 tuning steps/chain.[83] The default sampling parameters were used except for “target accept” parameter, which was increased to 0.95. For the final analysis the 1000 samples from the four chains were merged to yield 4000 samples.

[2] = target: T2, survivin (Homo sapiens, UniProt O15392); assay: Biolayer interferometry (reverse), immobilized survivin, EZH2 peptide as analyte; format: binding; settings: peptide 21.2 µM
T2 construct: transferred to the survivin1-142 construct used in the present study; His8 tag (pHIS8 vector, thrombin-cleavable); made in house; host or cells: E. coli BL21(DE3) star
Protocol: Other phases in the reverse experiment follow the same parameters as in non-reverse experiments mentioned above.
Δλ(t) values were converted to dimensionless quantities by dividing the wavelength shifts with 1 nm prior to the analysis. To develop the model, we tentatively assumed Langmuir’s 1:1 model.[85] The kinetic modelling was performed with the pymc3 python package[66] using a Bayesian model: p(KD,app|lower=10^−15,upper=10^−3)=1/upper−lower p(k−1|lower=10^−20,upper=10)=1/upper−lower k1=k−1/KD,app p(A|lower=10^−6,upper=10)=1/upper−lower p(ε|lower=10^−6,upper=1)=1/upper−lower p(Δλ(0)|μ=⟨Δλi⟩,σ=1/10∑(Δλi−⟨Δλi⟩)^2/n)=1/2πσe^−1/2σ(Δλ(t)−μ)^2;Δλ(0)∈[10^−20,+∞]
The association and dissociation phases were modelled simultaneously, and the probability of wavelength shift during association phase was modeled as: p(Δλ(t)|μ=Ac/KD,app+c(1−e^−(k1c+k−1)t),σ=ε)=1/2πσe^−1/2σ(Δλ(t)−μ)^2
The probability of wavelength shift during the dissociation phase was modelled as: p(Δλ(t)|μ=Δλ(0)e^−k−1t,σ=ε)=1/2πσe^−1/2σ(Δλ(t)−μ)^2, where A and k1 are the amplitude and rate constant of the exponential association process, respectively. The concentration of the analyte is c and KD,app is the apparent dissociation constant. The dissociation rate constant is marked with k-1. ε represents the standard deviation of Δλ(t) . […]

T1 sequence (O15392 whole entry): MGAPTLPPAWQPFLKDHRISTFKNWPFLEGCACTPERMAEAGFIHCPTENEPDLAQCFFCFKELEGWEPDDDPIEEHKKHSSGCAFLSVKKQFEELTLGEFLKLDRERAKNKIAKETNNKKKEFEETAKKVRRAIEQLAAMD
T2 sequence (O15392 whole entry): as above

VELVNALGQYNDDDDDDDGD DPEEREEKQKDLEDHRDDKE [EZH2_172-211, PRC2-derived peptide, EZH2 residues 172–211, synthesized by Biomatik]
critical peptide concentration ([1]; 300 μM survivin (monomer), pH 7.5, 298 K): 2.1 µM
<L> ([1]; logistic function parameter L, posterior mean (Table S10)): 0.68
<b> ([1]; logistic function parameter b, posterior mean (Table S10)): 0.32
<k> ([1]; logistic function parameter k, posterior mean (Table S10)): -1.04
binding strength from slow exchange regime (in words) ([1]; new resonances at high peptide concentrations, 298 K): strong binding in the low nanomolar range or below
k1 (association rate constant) ([2]; posterior mean ± SD): 45 ± 0.59 M⁻¹ s⁻¹
A (amplitude of association) ([2]; posterior mean, SD 1.2×10-3): 0.13 nm
